{"source": "patent US20230117252A1", "about": "“CELL SHEET HAVING FIBROSIS INHIBITORY ACTION” (NATIONAL UNIVERSITY CORPORATION TOTTORI UNIVERSITY, priority 2017, published 2023)", "key": {"[1]": {"test_system": "MMP-1", "assay": "MMP-1 activity of trypsin-treated cell suspension and cell sheet at different seeding densities (Example 1)", "format": "cell-based", "details": "for MMP1 average: UE7T-13 cells", "method": "(§1) In the present disclosure, the MMP activity can be determined by measuring the enzyme activity using a fluorescence resonance energy transfer (FRET) peptide that generates fluorescence upon cleavage by MMP.\n(§2) After four days, the temperature-responsive culture dishes were moved into a 32° C., 5% CO2 incubator, and sheets were made. The cell sheets obtained were washed three times with PBS, then homogenized in the buffer of an MMP activity measurement kit (SensoLyte® 520 MMP-1 Assay Kit Fluorimetric, (ANASPEC Co.: Cat #: AS-71150) and SensoLyte® 520 MMP-14 Assay Kit Fluorimetric (ANASPEC Co.: Cat #AS72025)). The cells seeded in the ordinary cell culture dishes were dispersed in 0.025% trypsin/0.1 mM EDTA, recovered by centrifugation, then washed three times with PBS and homogenized in the buffer for the MMP activity measurement. The results in FIG. 1 show the results on MMP-1 (FIG. 1A) and MMP-14 (FIG. 1B) per cell. […] It was a surprising result that the MMP-1 activity per cell was increased by increasing the seeding density."}, "[2]": {"test_system": "MMP-14", "assay": "MMP-14 activity of trypsin-treated cell suspension and cell sheet at different seeding densities (Example 1)", "format": "cell-based", "details": "for MMP14 average: UE7T-13 cells", "from_the_text": "as §1\nas §2, with “Bone marrow-derived mesenchymal stem cells (UE7T-13 cell line) were suspended in DMED/10% FBS and seeded to make respective seeded cell densities of 3.6×10^4 cells/cm^2, 5.4×10^4 cells/cm^2, and 7.2×10^4 cells/cm^2 in temperature-responsive culture dishes and ordinary cell culture dishes. After” for “After”"}, "[3]": {"details": "seeding density 1.8 × 10^4 cells/cm^2, per cell"}, "[4]": {"details": "seeding density 3.6 × 10^4 cells/cm^2, per cell"}, "[5]": {"details": "seeding density 5.4 × 10^4 cells/cm^2, per cell"}, "[6]": {"details": "seeding density 7.2 × 10^4 cells/cm^2, per cell"}}}
{"substance": "Trypsin", "values": [{"measurement": "increase of MMP activity when the seeding density was increased four-fold", "setting": "[1]; Example 1, MMP-1 and MMP-14 together", "result": "about four-fold"}, {"measurement": "increase of MMP-1 activity when the seeding density was increased four-fold", "setting": "[1]; FIG. 1A", "result": "about four-fold"}, {"measurement": "MMP1 average", "setting": "[1]; [3]", "result": 103548.8}, {"measurement": "MMP1 average", "setting": "[1]; [4]", "result": 242642.7}, {"measurement": "MMP1 average", "setting": "[1]; [5]", "result": 326635.6}, {"measurement": "MMP1 average", "setting": "[1]; [6]", "result": 462976}, {"measurement": "increase of MMP-14 activity when the seeding density was increased four-fold", "setting": "[2]; FIG. 1B", "result": "about four-fold"}, {"measurement": "MMP14 average", "setting": "[2]; [3]", "result": 156184.1}, {"measurement": "MMP14 average", "setting": "[2]; [4]", "result": 353634.5}, {"measurement": "MMP14 average", "setting": "[2]; [5]", "result": 427591.6}, {"measurement": "MMP14 average", "setting": "[2]; [6]", "result": 576164}]}
